Source: ChEMBL document CHEMBL1159020, “Phytotoxins of Ascochyta hyalospora, Causal Agent of Lambsquarters Leaf Spot” (1992)
The source made the active and inactive calls. The rule behind the calls is not given here.

What was measured:
Sida spinosa [1] = experiment: Phytotoxicity against Prickly sida assessed as leaf necrotic area at 100 ug by detached leaf assay; type: functional
Escherichia coli [2] = experiment: Antimicrobial activity against Escherichia coli at 500 ug by antibiotic disk assay; type: functional; conditions: read-out: Diameter of inhibition zone
Senna obtusifolia [3] = experiment: Phytotoxicity against Sicklepod assessed as leaf necrotic area at 50 ug by detached leaf assay; type: functional
[4] = system: Agrobacterium tumefaciens; experiment: Antimicrobial activity against Agrobacterium tumefaciens at 500 ug by antibiotic disk assay; type: functional; conditions: read-out: Diameter of inhibition zone
Sorghum bicolor [5] = experiment: Phytotoxicity against Sorghum bicolor assessed as leaf necrotic area at 100 ug by detached leaf assay; type: functional
Sida spinosa [6] = experiment: Phytotoxicity against Prickly sida assessed as leaf necrotic area at 50 ug by detached leaf assay; type: functional
[7] = system: Pectobacterium carotovorum; experiment: Antimicrobial activity against Erwinia carotovora at 500 ug by antibiotic disk assay; type: functional; conditions: read-out: Diameter of inhibition zone
Poa nemoralis [8] = experiment: Phytotoxicity against bent grass assessed as leaf necrotic area at 50 ug by detached leaf assay; type: functional
Chenopodium album [9] = experiment: Phytotoxicity against Lamb's quarters assessed as leaf necrotic area at 100 ug by detached leaf assay; type: functional
Sorghum halepense [10] = experiment: Phytotoxicity against Johnson grass assessed as leaf necrotic area at 100 ug by detached leaf assay; type: functional
Datura stramonium [11] = experiment: Phytotoxicity against Jimsonweed assessed as leaf necrotic area at 50 ug by detached leaf assay; type: functional
Ambrosia artemisiifolia [12] = experiment: Phytotoxicity against rag weed assessed as leaf necrotic area at 100 ug by detached leaf assay; type: functional
Ipomoea [13] = experiment: Phytotoxicity against Ipomoea sp. assessed as leaf necrotic area at 100 ug by detached leaf assay; type: functional
Nasturtium officinale [14] = experiment: Phytotoxicity against watercress assessed as leaf necrotic area at 50 ug by detached leaf assay; type: functional
Penicillium chrysogenum [15] = experiment: Antimicrobial activity against Penicillium notatum at 500 ug by antibiotic disk assay; type: functional; conditions: read-out: Diameter of inhibition zone
Ambrosia artemisiifolia [16] = experiment: Phytotoxicity against rag weed assessed as leaf necrotic area at 50 ug by detached leaf assay; type: functional
Nasturtium officinale [17] = experiment: Phytotoxicity against Nasturtium officinale assessed as leaf necrotic area at 100 ug by detached leaf assay; type: functional
Colletotrichum acutatum [18] = experiment: Antimicrobial activity against Colletotrichum acutatum at 500 ug by antibiotic disk assay; type: functional; conditions: read-out: Diameter of inhibition zone
Sorghum halepense [19] = experiment: Phytotoxicity against Johnson grass assessed as leaf necrotic area at 50 ug by detached leaf assay; type: functional
Datura stramonium [20] = experiment: Phytotoxicity against Jimsonweed assessed as leaf necrotic area at 100 ug by detached leaf assay; type: functional
Chenopodium album [21] = experiment: Phytotoxicity against Lamb's quarters assessed as leaf necrotic area at 50 ug by detached leaf assay; type: functional
Ipomoea [22] = experiment: Phytotoxicity against Ipomoea sp. assessed as leaf necrotic area at 50 ug by detached leaf assay; type: functional
Sorghum bicolor [23] = experiment: Phytotoxicity against Sorghum bicolor assessed as leaf necrotic area at 50 ug by detached leaf assay; type: functional
Aspergillus flavus [24] = experiment: Antimicrobial activity against Aspergillus flavus at 500 ug by antibiotic disk assay; type: functional; conditions: read-out: Diameter of inhibition zone
[25] = system: Curtobacterium flaccumfaciens; experiment: Antimicrobial activity against Corynebacterium flaccumfaciens at 500 ug by antibiotic disk assay; type: functional; conditions: read-out: Diameter of inhibition zone
Senna obtusifolia [26] = experiment: Phytotoxicity against Sicklepod assessed as leaf necrotic area at 100 ug by detached leaf assay; type: functional
Chenopodium album [27] = experiment: Phytotoxicity against Lamb's quarters assessed as electrolyte leakage at 500 to 1000 ug/ml; type: functional, organism-based
Senna obtusifolia [28] = experiment: Phytotoxicity against Sicklepod assessed as leaf necrotic area at 25 ug by detached leaf assay; type: functional
Ipomoea [29] = experiment: Phytotoxicity against Ipomoea sp. assessed as leaf necrotic area at 25 ug by detached leaf assay; type: functional
Nasturtium officinale [30] = experiment: Phytotoxicity against watercress assessed as leaf necrotic area at 25 ug by detached leaf assay; type: functional
[31] = system: Curtobacterium flaccumfaciens; experiment: Antimicrobial activity against Corynebacterium flaccumfaciens at 1000 ug by antibiotic disk assay; type: functional; conditions: read-out: Diameter of inhibition zone
Sorghum bicolor [32] = experiment: Phytotoxicity against Sorghum bicolor assessed as leaf necrotic area at 25 ug by detached leaf assay; type: functional
Escherichia coli [33] = experiment: Antimicrobial activity against Escherichia coli at 1000 ug by antibiotic disk assay; type: functional; conditions: read-out: Diameter of inhibition zone
Poa nemoralis [34] = experiment: Phytotoxicity against bent grass assessed as leaf necrotic area at 25 ug by detached leaf assay; type: functional
[35] = system: Pectobacterium carotovorum; experiment: Antimicrobial activity against Erwinia carotovora at 1000 ug by antibiotic disk assay; type: functional; conditions: read-out: Diameter of inhibition zone
Penicillium chrysogenum [36] = experiment: Antimicrobial activity against Penicillium notatum at 1000 ug by antibiotic disk assay; type: functional; conditions: read-out: Diameter of inhibition zone
[37] = system: Agrobacterium tumefaciens; experiment: Antimicrobial activity against Agrobacterium tumefaciens at 1000 ug by antibiotic disk assay; type: functional; conditions: read-out: Diameter of inhibition zone
Sida spinosa [38] = experiment: Phytotoxicity against Prickly sida assessed as leaf necrotic area at 25 ug by detached leaf assay; type: functional
Aspergillus flavus [39] = experiment: Antimicrobial activity against Aspergillus flavus at 1000 ug by antibiotic disk assay; type: functional; conditions: read-out: Diameter of inhibition zone
Colletotrichum acutatum [40] = experiment: Antimicrobial activity against Colletotrichum acutatum at 1000 ug by antibiotic disk assay; type: functional; conditions: read-out: Diameter of inhibition zone
Chenopodium album [41] = experiment: Phytotoxicity against Lamb's quarters assessed as leaf necrotic area at 25 ug by detached leaf assay; type: functional
Datura stramonium [42] = experiment: Phytotoxicity against Jimsonweed assessed as leaf necrotic area at 25 ug by detached leaf assay; type: functional
Ambrosia artemisiifolia [43] = experiment: Phytotoxicity against rag weed assessed as leaf necrotic area at 25 ug by detached leaf assay; type: functional
Sorghum halepense [44] = experiment: Phytotoxicity against Johnson grass assessed as leaf necrotic area at 25 ug by detached leaf assay; type: functional
Sorghum bicolor [45] = experiment: Phytotoxicity against Sorghum bicolor assessed as inhibition of root growth at 1000 ug after 24 hrs root growth assay; type: functional, organism-based
Sida spinosa [46] = experiment: Phytotoxicity against Prickly sida assessed as leaf necrotic area at 10 ug by detached leaf assay; type: functional
Poa nemoralis [47] = experiment: Phytotoxicity against bent grass assessed as leaf necrotic area at 10 ug by detached leaf assay; type: functional
Ambrosia artemisiifolia [48] = experiment: Phytotoxicity against rag weed assessed as leaf necrotic area at 10 ug by detached leaf assay; type: functional
Senna obtusifolia [49] = experiment: Phytotoxicity against Sicklepod assessed as leaf necrotic area at 10 ug by detached leaf assay; type: functional
Nasturtium officinale [50] = experiment: Phytotoxicity against watercress assessed as leaf necrotic area at 10 ug by detached leaf assay; type: functional
Sorghum bicolor [51] = experiment: Phytotoxicity against Sorghum bicolor assessed as leaf necrotic area at 10 ug by detached leaf assay; type: functional
Datura stramonium [52] = experiment: Phytotoxicity against Jimsonweed assessed as leaf necrotic area at 10 ug by detached leaf assay; type: functional
Chenopodium album [53] = experiment: Phytotoxicity against Lamb's quarters assessed as leaf necrotic area at 10 ug by detached leaf assay; type: functional
Ipomoea [54] = experiment: Phytotoxicity against Ipomoea sp. assessed as leaf necrotic area at 10 ug by detached leaf assay; type: functional
Sorghum halepense [55] = experiment: Phytotoxicity against Johnson grass assessed as leaf necrotic area at 10 ug by detached leaf assay; type: functional

CCC(C)c1oc(CC(C)O)cc(=O)c1C (configuration not stated) [HYALOPYRONE]
Activity (Sida spinosa [1]): 13 mm2 | zone of inhibition at 500 µg/disc (Escherichia coli [2]): 0 mm | Activity (Senna obtusifolia [3]): 3 mm2 | zone of inhibition at 500 µg/disc [4]: 0 mm | Activity (Sorghum bicolor [5]): 23 mm2 | Activity (Sida spinosa [6]): 7 mm2 | zone of inhibition at 500 µg/disc [7]: 0 mm | Activity (Poa nemoralis [8]): 6 mm2 | Activity (Chenopodium album [9]): 5 mm2 | Activity (Sorghum halepense [10]): 15 mm2 | Activity (Datura stramonium [11]): 0 mm2 | Activity (Ambrosia artemisiifolia [12]): 18 mm2 | Activity (Ipomoea [13]): 8 mm2 | Activity (Nasturtium officinale [14]): 5 mm2 | zone of inhibition at 500 µg/disc (Penicillium chrysogenum [15]): 12 mm | Activity (Ambrosia artemisiifolia [16]): 10 mm2 | Activity (Nasturtium officinale [17]): 7 mm2 | zone of inhibition at 500 µg/disc (Colletotrichum acutatum [18]): 16 mm | Activity (Sorghum halepense [19]): 11 mm2 | Activity (Datura stramonium [20]): 3 mm2 | Activity (Chenopodium album [21]): 4 mm2 | Activity (Ipomoea [22]): 5 mm2 | Activity (Sorghum bicolor [23]): 18 mm2 | zone of inhibition at 500 µg/disc (Aspergillus flavus [24]): 10 mm | zone of inhibition at 500 µg/disc [25]: 12 mm | Activity (Senna obtusifolia [26]): 4 mm2

CCC(C)c1occ2c(=O)c(C(=O)O)c(O)cc-2c1C (configuration not stated) [ASCOCHYTINE]
Activity (Sida spinosa [1]): 35 mm2 | Activity (Chenopodium album [27]): Active | zone of inhibition at 500 µg/disc (Escherichia coli [2]): 8 mm | Activity (Senna obtusifolia [3]): 13 mm2 | Activity (Senna obtusifolia [28]): 9 mm2 | Activity (Ipomoea [29]): 8 mm2 | zone of inhibition at 500 µg/disc [4]: 26 mm | Activity (Sorghum bicolor [5]): 28 mm2 | Activity (Sida spinosa [6]): 20 mm2 | Activity (Nasturtium officinale [30]): 2 mm2 | zone of inhibition at 500 µg/disc [7]: 0 mm | zone of inhibition at 1000 µg/disc [31]: 42 mm | Activity (Sorghum bicolor [32]): 12 mm2 | Activity (Poa nemoralis [8]): 8 mm2 | Activity (Chenopodium album [9]): 19 mm2 | Activity (Sorghum halepense [10]): 24 mm2 | Activity (Datura stramonium [11]): 15 mm2 | zone of inhibition at 1000 µg/disc (Escherichia coli [33]): 10 mm | Activity (Ambrosia artemisiifolia [12]): 8 mm2 | Activity (Ipomoea [13]): 9 mm2 | Activity (Nasturtium officinale [14]): 5 mm2 | zone of inhibition at 500 µg/disc (Penicillium chrysogenum [15]): 0 mm | Activity (Ambrosia artemisiifolia [16]): 5 mm2 | Activity (Poa nemoralis [34]): 7 mm2 | Activity (Nasturtium officinale [17]): 20 mm2 | zone of inhibition at 500 µg/disc (Colletotrichum acutatum [18]): 18 mm | zone of inhibition at 1000 µg/disc [35]: 0 mm | zone of inhibition at 1000 µg/disc (Penicillium chrysogenum [36]): 10 mm | Activity (Sorghum halepense [19]): 10 mm2 | Activity (Datura stramonium [20]): 22 mm2 | zone of inhibition at 1000 µg/disc [37]: 35 mm | Activity (Sida spinosa [38]): 6 mm2 | Activity (Chenopodium album [21]): 11 mm2 | zone of inhibition at 1000 µg/disc (Aspergillus flavus [39]): 0 mm | zone of inhibition at 1000 µg/disc (Colletotrichum acutatum [40]): 20 mm | Activity (Chenopodium album [41]): 5 mm2 | Activity (Datura stramonium [42]): 11 mm2 | Activity (Ipomoea [22]): 9 mm2 | Activity (Ambrosia artemisiifolia [43]): 5 mm2 | Activity (Sorghum bicolor [23]): 18 mm2 | Activity (Sorghum halepense [44]): 10 mm2 | zone of inhibition at 500 µg/disc (Aspergillus flavus [24]): 0 mm | Activity (Sorghum bicolor [45]): Active | zone of inhibition at 500 µg/disc [25]: 30 mm | Activity (Senna obtusifolia [26]): 16 mm2

C[C@H]1OC(=O)/C=C\C(=O)/C=C/[C@H]2O[C@@H]12 [PYRENOLIDE A]
Activity (Chenopodium album [27]): Active | zone of inhibition at 500 µg/disc (Escherichia coli [2]): 0 mm | Activity (Sida spinosa [46]): 0 mm2 | Activity (Poa nemoralis [47]): 0 mm2 | Activity (Senna obtusifolia [3]): 2 mm2 | Activity (Senna obtusifolia [28]): 0 mm2 | Activity (Ipomoea [29]): 0 mm2 | zone of inhibition at 500 µg/disc [4]: 4 mm | Activity (Sida spinosa [6]): 4 mm2 | Activity (Ambrosia artemisiifolia [48]): 0 mm2 | Activity (Nasturtium officinale [30]): 0 mm2 | zone of inhibition at 500 µg/disc [7]: 0 mm | zone of inhibition at 1000 µg/disc [31]: 34 mm | Activity (Senna obtusifolia [49]): 0 mm2 | Activity (Sorghum bicolor [32]): 8 mm2 | Activity (Poa nemoralis [8]): 0 mm2 | Activity (Datura stramonium [11]): 2 mm2 | zone of inhibition at 1000 µg/disc (Escherichia coli [33]): 0 mm | Activity (Nasturtium officinale [50]): 0 mm2 | Activity (Nasturtium officinale [14]): 1 mm2 | Activity (Sorghum bicolor [51]): 2 mm2 | zone of inhibition at 500 µg/disc (Penicillium chrysogenum [15]): 16 mm | Activity (Ambrosia artemisiifolia [16]): 6 mm2 | Activity (Poa nemoralis [34]): 0 mm2 | zone of inhibition at 500 µg/disc (Colletotrichum acutatum [18]): 21 mm | Activity (Datura stramonium [52]): 0 mm2 | zone of inhibition at 1000 µg/disc [35]: 0 mm | zone of inhibition at 1000 µg/disc (Penicillium chrysogenum [36]): 22 mm | Activity (Sorghum halepense [19]): 18 mm2 | zone of inhibition at 1000 µg/disc [37]: 22 mm | Activity (Sida spinosa [38]): 0 mm2 | Activity (Chenopodium album [53]): 2 mm2 | Activity (Chenopodium album [21]): 13 mm2 | zone of inhibition at 1000 µg/disc (Aspergillus flavus [39]): 0 mm | zone of inhibition at 1000 µg/disc (Colletotrichum acutatum [40]): 32 mm | Activity (Chenopodium album [41]): 5 mm2 | Activity (Datura stramonium [42]): 0 mm2 | Activity (Ipomoea [22]): 3 mm2 | Activity (Ambrosia artemisiifolia [43]): 3 mm2 | Activity (Sorghum bicolor [23]): 10 mm2 | Activity (Sorghum halepense [44]): 7 mm2 | zone of inhibition at 500 µg/disc (Aspergillus flavus [24]): 0 mm | Activity (Sorghum bicolor [45]): Active | zone of inhibition at 500 µg/disc [25]: 22 mm | Activity (Ipomoea [54]): 0 mm2 | Activity (Sorghum halepense [55]): 3 mm2
